{"source": "paper PMC5522996", "about": "“Big conductance calcium‐activated potassium channel openers control spasticity without sedation” (British Journal of Pharmacology, 2017)", "key": {"[1]": {"tested_on": "spastic ABH mice with EAE", "experiment": "Spasticity: resistance to hindlimb flexion against a strain gauge"}, "[2]": {"tested_on": "ABH mice", "experiment": "Temperature testing (hypothermia)", "format": "in vivo, mouse", "conditions": "for Temperature loss: 10 mg·kg^−1 i.v.", "method": "These recordings were assessed 20 min following administration of compounds. Results are expressed as mean ± SEM, and were analysed by Student's t‐test or a one‐way ANOVA with Bonferroni post hoc test using Sigma/StatV3/Sigmpaplot V9 or V11 software (Pryce et al., 2014)."}, "[3]": {"tested_on": "ABH mice", "experiment": "Open‐field activity monitoring (hypomotility)", "format": "in vivo, mouse", "method": "Motor activity was assessed using 27.9 × 27.9 cm open field activity monitor chambers and computer software (Med Associates Inc, St. Albans, VT, USA.). This was typically performed in a darkened room. Recordings were initiated once the mouse entered the chamber and continued for 5 min. These chambers, allowing four simultaneous recordings of individual mice and were fitted with infrared beams that could detect movement in the X, Y planes. The total distance travelled (cm) was recorded. Results are expressed as mean ± SEM. These were analysed by Student's paired t‐test or a one‐way ANOVA with Bonferroni post hoc test, using SigmaStat V3/Sigmaplot V9 or V11 software (Systat Ltd Hounslow, UK. Al‐Izki et al., 2012)."}, "[4]": {"tested_on": "rat mesenteric artery", "experiment": "Methoxamine‐evoked contraction of rat mesenteric artery", "format": "cell-based", "conditions": "50 nM blocker pretreatment", "method": "Vessels were equilibrated and set to a basal tension of 2 to 2.5 mN. The integrity of the endothelium was assessed by pre‐contracting the vessel with 10 μM methoxamine (an α1‐adrenoceptor agonist), followed by relaxation with 10 μM carbachol (a muscarinic acetylcholine receptor agonist); vessels showing relaxations of greater than 90% were designated as endothelium‐intact. When the endothelium was not required, it was removed by rubbing the intima with a human hair; carbachol‐induced relaxation of less than 10% indicated successful removal. After the test for endothelial integrity, vessels were left for 30 min and then pre‐contracted with 10 μM methoxamine. This was followed by construction of a cumulative concentration–relaxation curve to VSN16R (10 nM–1 μM). […] Most experiments were performed in matched vessels; effects of blockers or endothelial removal were compared with the control responses obtained in separate vessels of the same rats. All relaxant responses are expressed as percentage relaxation of the tone induced by methoxamine. Values are given as mean ± SEM. Statistical comparisons of concentration‐dependent responses were made by two‐way ANOVA using Prism 4 (GraphPad Software, Inc, San Diego, CA, USA)."}, "[5]": {"conditions": "i.p., 40 mg·kg^−1 BMS‐204352, 20 mg·kg^−1 NS‐1619, 10 mg·kg^−1 NS‐11021"}}}
{"compound": "COc1ccc(Cl)cc1[C@]1(F)C(=O)Nc2cc(C(F)(F)F)ccc21", "note": "[BMS‐204352, reference compound]", "values": [{"measurement": "Inhibition of spasticity", "setting": "[1]; [5]", "result": "significantly inhibit spasticity"}, {"measurement": "Sedation", "setting": "[1]; [5]", "result": "without causing sedation"}]}
{"compound": "N#Cc1cc2[nH]c(=O)c(=O)[nH]c2cc1[N+](=O)[O-]", "note": "[CNQX, reference compound]", "values": [{"measurement": "Inhibitory response on repeated dosing", "setting": "[1]; repeated 25 mg·kg^−1 s.c.", "result": "inhibitory responses that diminished over time"}]}
{"compound": "CCCCCCC(C)(C)c1cc(O)c2c(c1)OC(C)(C)[C@@H]1CC=C(C(=O)O)C[C@@H]21", "note": "[CT3, 1′, 1′‐dimethylheptyl‐M8‐tetrahydrocannabinol‐11‐oic acid]", "values": [{"measurement": "Temperature loss", "setting": "[2]; 20 min, spastic animals", "result": "2.3 ± 0.4", "unit": "°C"}, {"measurement": "Temperature loss", "setting": "[2]; healthy mice", "result": "0.0 ± 0.1", "unit": "°C"}]}
{"compound": "O=c1[nH]c2cc(C(F)(F)F)ccc2n1-c1cc(C(F)(F)F)ccc1O", "note": "[NS‐1619, reference compound]", "values": [{"measurement": "Inhibition of spasticity", "setting": "[1]; [5]", "result": "significantly inhibit spasticity"}, {"measurement": "Sedation", "setting": "[1]; [5]", "result": "without causing sedation"}]}
{"compound": "FC(F)(F)c1cc(NC(=S)Nc2ccc(Br)cc2-c2nn[nH]n2)cc(C(F)(F)F)c1", "note": "[NS‐11021, reference compound]", "values": [{"measurement": "Inhibition of spasticity", "setting": "[1]; [5]", "result": "significantly inhibit spasticity"}, {"measurement": "Sedation", "setting": "[1]; [5]", "result": "without causing sedation"}]}
{"compound": "Cc1c(C(=O)c2cccc3ccccc23)c2cccc3c2n1[C@H](CN1CCOCC1)CO3", "note": "[R(+)WIN55‐212]", "values": [{"measurement": "Hypomotility in open field", "setting": "[3]; 1 mg·kg^−1 i.v., 30 min after administration", "result": "significant sedative effects"}, {"measurement": "Hypothermia", "setting": "[2]; 1 mg·kg^−1 i.v., 20 min after administration", "result": "significant sedative effects"}]}
{"compound": "NCC(CC(=O)O)c1ccc(Cl)cc1", "note": "(stereo not drawn) [baclofen, reference compound]", "values": [{"measurement": "Inhibition of spasticity", "setting": "[1]; 5 mg·kg^−1 i.v.", "result": "comparable inhibition of spasticity"}, {"measurement": "Inhibitory response on repeated dosing", "setting": "[1]; repeated 5 mg·kg^−1 p.o.", "result": "inhibitory responses that diminished over time"}, {"measurement": "Sedation (hypomotility, hypothermia)", "setting": "[3]; 5 mg·kg^−1 i.v.", "result": "significant sedation"}]}
{"compound": "CC(C)(O)[C@H]1O[C@H]2CC[C@@]3(C)[C@@](O)(CC[C@H]4Cc5c([nH]c6ccccc56)[C@@]43C)C2=CC1=O", "note": "[paxilline, reference compound]", "values": [{"measurement": "Effect on baseline level of spasticity", "setting": "[1]; 1 mg·kg^−1 i.p.", "result": "did not influence the baseline level of spasticity"}, {"measurement": "Effect of pretreatment on the action of VSN16R", "setting": "[1]; 1 mg·kg^−1 i.p. before 5 mg·kg^−1 p.o. VSN16R", "result": "completely inhibit the action of VSN16R"}]}
{"compound": "Apamin: KCa2.2/2.3 (KCNN2/KCNN3) channel antagonist (CNCKAPETALCARRCQQHG)", "values": [{"measurement": "Effect of the blocker on VSN16R vasorelaxation", "setting": "[4]", "result": "small inhibitory effect"}]}
{"compound": "charybdotoxin", "values": [{"measurement": "Effect of the blocker on VSN16R vasorelaxation", "setting": "[4]", "result": "significantly inhibited"}]}
